Results on 17 compounds are retold here after the supplement of paper PMC4862054.

Each structure is given as a SMILES string. Where “and” joins values, the source holds several entries; their conditions need not be identical. Equal entries are not always repeated.

The test system of assay [1] is MDA-MB-453. Nature of the assay: normalised viability (% of control), CellTiter-Blue; higher = more viable cells (about 100 = DMSO control). The conditions noted are these: incubation time: 72 h. As for the experimental part:
(§1)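 DSRT, CellTiter-Blue viability, 72 h incubation. Signal is normalised to DMSO and benzethonium chloride controls. Value is the normalised response at dose 7.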

Assay [2] has as its system DU-4475. The description is as above. The note with it: incubation time: 72 h. As for the experimental part:
as §1

The next assay has as its system HDQ-P1. The assay is described as above. The note with it: incubation time: 72 h. As for the experimental part:
as §1

The test system of assay [3] is CAL-148. The assay is described as above. The note with it: incubation time: 72 h. As for the experimental part:
as §1

In another assay the test system is CAL-51. The description is as above. The note with it: incubation time: 72 h. As for the experimental part: as §1
Assay [4] deals with CAL-85-1. Described as above. The note with it: incubation time: 72 h. As for the experimental part:
as §1

The test system of assay [5] is MDA-MB-231. Description: drug sensitivity score (DSS), CellTox Green (DSS (AUC-based score)); higher = stronger drug effect (viability inhibition or cytotoxicity); extreme values may be limits of the assay. The note with it: incubation time: 72 h. In outline:
(§2)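 Using 20 µl of cell suspension per well, breast cancer cell lines were seeded into 384-well plates pre-loaded with compound at 5 concentrations in 10-fold steps across a compound-specific 10,000-fold range. Incubation lasted 72 h, after which CellTox Green fluorescence at 485/520 nm and then CellTiter-Glo luminescence, following 10 min at room temperature, were recorded. Each plate was normalised to 0.1 % DMSO and a positive kill control before the drug sensitivity score was derived from the area under the fitted dose-response curve.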

The subject of the next assay is MFM-223. The description is as above. The conditions noted are these: incubation time: 72 h. The method, boiled down:
as §2

The subject of assay [6] is BT-549. Described as above. The conditions noted are these: incubation time: 72 h. The method, boiled down:
as §2

Assay [7] has as its system CAL-85-1. The description is as above. The conditions noted are these: incubation time: 72 h. The method, boiled down:
as §2

Assay [8] relates to MDA-MB-231. The conditions noted are these: 72 h. In outline: (§3)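 Compound dissolved in 5 µl medium was placed in 384-well plates before 20 µl of breast cancer cell suspension was added, and the plates were incubated for 72 h. Cells then received 2.5 µl CellTiter-Blue for 2 h at 37 °C, and fluorescence was read at 560/590 nm. EC50 values come from percent-inhibition dose-response fits that were censored at the highest concentration, with plates normalised to vehicle and a positive kill control and rows with a zero drug sensitivity score excluded.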

The next assay has as its system SK-BR-3. The conditions noted are these: 72 h. In outline: as §3
The subject of the next assay is HCC1937. The conditions noted are these: 72 h. In outline:
as §3

The test system of assay [9] is MDA-MB-468. The note with it: 72 h. The method, boiled down:
as §3

The next assay relates to Hs578T. The conditions noted are these: 72 h. The method, boiled down:
as §3

The next assay relates to HCC1143. The conditions noted are these: 72 h. In outline:
as §3

Another assay deals with CAL-120. The note with it: 72 h. In outline: as §3
For assay [10], the system named is MDA-MB-231. The note with it: 72 h. The method, boiled down:
(§4)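 Seeding of breast cancer cell lines (20 µl suspension) was done into 384-well plates pre-loaded with compound at 5 concentrations, 10-fold apart, covering a compound-specific 10,000-fold range. The plates were incubated for 72 h, read for CellTox Green fluorescence (485/520 nm), and then read for CellTiter-Glo luminescence after 10 min at room temperature. Every plate was normalised to 0.1 % DMSO and a positive kill control. Curve fitting gave the EC50, censored at the top concentration.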
The source holds these as a separate data set.

The test system of assay [11] is MDA-MB-453. The note with it: 72 h. The method, boiled down: as §4
Assay [12] deals with MDA-MB-468. The conditions noted are these: 72 h. The method, boiled down:
as §4
This is another data set of the same source.

Assay [13] relates to BT-549. The conditions noted are these: 72 h. In outline:
as §4

The test system of a further assay is BT-474. The conditions noted are these: 72 h. The method, boiled down: as §4
For assay [14], the system named is CAL-85-1. The note with it: 72 h. In outline:
as §4

The subject of assay [15] is MDA-MB-453. The conditions noted are these: 72 h. In outline:
as §3
This is another data set of the same source.

Assay [16] relates to DU-4475. The conditions noted are these: 72 h. In outline:
as §3

For assay [17], the system named is CAL-148. The note with it: 72 h. In outline:
as §3

Assay [18] concerns CAL-85-1. The conditions noted are these: 72 h. The method, boiled down:
as §3
The source holds these as a separate data set.

Consider `Cc1cc(Nc2nc(N[C@@H](C)c3ncc(F)cn3)ncc2Cl)[nH]n1` [AZD1480] (100 nM), for which the normalised viability was 105% in the assay on MDA-MB-453 [1]; 93.2% in the assay on DU-4475 [2]; 98.6% with HDQ-P1; 105% in the assay on CAL-148 [3]; 108% in the assay on CAL-51; 82.2% in the assay with CAL-85-1 [4].

As for `CC(C)C[C@H](NC(=O)[C@@H](COC(C)(C)C)NC(=O)[C@H](Cc1ccc(O)cc1)NC(=O)[C@H](CO)NC(=O)[C@H](Cc1c[nH]c2ccccc12)NC(=O)[C@H](Cc1cnc[nH]1)NC(=O)[C@@H]1CCC(=O)N1)C(=O)N[C@@H](CCCNC(=N)N)C(=O)N1CCC[C@H]1C(=O)NNC(N)=O` [Goserelin] (1000 nM), the normalised viability was 96% in the assay on MDA-MB-453 [1]; 102% in the assay on DU-4475 [2]; 96.9% with HDQ-P1; 97.1% with CAL-148 [3]; 108% in the assay on CAL-51; 93.2% in the assay on CAL-85-1 [4].

Turning to `Cc1cn(-c2cc(NC(=O)c3ccc(C)c(Nc4nccc(-c5cccnc5)n4)c3)cc(C(F)(F)F)c2)cn1` [Nilotinib] (1000 nM), the normalised viability in the assay with MDA-MB-453 [1] is 88.3% and 97.5%; in the assay with DU-4475 [2] it was 113% and 98.9%; in the assay with HDQ-P1, 91.7% and 81.1%; in the assay on CAL-148 [3] it was 93.5% and 93.9%; in the assay with CAL-51, 107% and 117%; in the assay with CAL-85-1 [4] it was 84.7% and 89.2%.

Consider `CCNC(=O)CCC/C=C\C[C@@H]1[C@@H](/C=C/[C@@H](O)CCc2ccccc2)[C@H](O)C[C@@H]1O` [Bimatoprost], for which the drug sensitivity score in the assay on MDA-MB-231 [5], in the assay with MFM-223, with BT-549 [6] and in the assay on CAL-85-1 [7] was 0 each time.

As to `C=CCN(/C=C1/C(=O)O[C@H](COC)[C@@]2(C)C1=C(O)C(=O)C1=C2[C@H](OC(C)=O)C[C@]2(C)C(=O)CC[C@@H]12)CC=C` [PX-866], the “EC50, CellTiter-Blue viability” value in the assay on MDA-MB-231 [8] was found to be 951 nM; in the assay on SK-BR-3, 1320 nM; in the assay on HCC1937, 725 nM; in the assay with MDA-MB-468 [9], 1390 nM; with Hs578T, 6750 nM; in the assay on HCC1143, 1130 nM. Further, in the assay on CAL-120, the “EC50, CellTiter-Blue viability” value stood at 1020 nM.

`COc1cc(Nc2c(C#N)cnc3cc(OCCCN4CCN(C)CC4)c(OC)cc23)c(Cl)cc1Cl` [Bosutinib] (1000 nM): the normalised viability in the assay with MDA-MB-453 [1] worked out at 80.3%; in the assay with DU-4475 [2] it was 109%; in the assay on HDQ-P1, 89.2%; in the assay with CAL-148 [3], 72%; in the assay on CAL-51, 109%; with CAL-85-1 [4], 81.9%.

Regarding `CN[C@@H](C)C(=O)N[C@H]1CN(C(=O)CC(C)C)CC[C@H]2CC[C@@H](C(=O)NC(c3ccccc3)c3ccccc3)N2C1=O` [AT-406], the “EC50, CellTiter-Glo” value in the assay with MDA-MB-231 [10] was 278 nM; with MDA-MB-453 [11] it was 4490 nM; in the assay on MDA-MB-468 [12], 563 nM; with BT-549 [13], 5.97 nM; in the assay on BT-474 it was 83.8 nM; in the assay on CAL-85-1 [14], 826 nM. The drug sensitivity score with MDA-MB-231 [5] came out at 25.5; with MFM-223, 0; in the assay on BT-549 [6], 8.86; with CAL-85-1 [7], 22.9.

Take `Nc1ccn([C@@H]2O[C@H](CO)[C@@H](O)C2(F)F)c(=O)n1` [Gemcitabine] (100 nM): the normalised viability was determined as 48.3% with MDA-MB-453 [1]; 45.1% in the assay on DU-4475 [2]; 92.3% with HDQ-P1; 33.7% in the assay with CAL-148 [3]; 16.3% in the assay with CAL-51; 49.8% in the assay on CAL-85-1 [4].

For `COc1c2occc2cc2ccc(=O)oc12` [Methoxsalen], the “EC50, CellTiter-Blue viability” value in the assay on MDA-MB-453 [15] worked out at 7900 nM; with DU-4475 [16], 6860 nM; with CAL-148 [17], 6360 nM; with CAL-85-1 [18], 9050 nM.

Regarding `O=C(CCCCCCC(=O)Nc1ccccc1)NO` [Vorinostat] (1000 nM), the normalised viability in the assay with MDA-MB-453 [1] is 51.6% and 54.1%; in the assay on DU-4475 [2] it was 103% and 97.4%; in the assay on HDQ-P1, 80.8% and 62.8%; in the assay on CAL-148 [3], 83.7% and 89.3%; with CAL-51 it was 107% and 99.4%; with CAL-85-1 [4], 84% and 86.3%.

For `CC(=O)[C@]1(O)Cc2c(O)c3c(c(O)c2[C@@H](O[C@H]2C[C@H](N)[C@H](O)[C@H](C)O2)C1)C(=O)c1ccccc1C3=O` [Idarubicin] (100 nM), the normalised viability in the assay on MDA-MB-453 [1] stood at 79.4%; in the assay on DU-4475 [2] it was 27.7%; with HDQ-P1, 78.3%; in the assay on CAL-148 [3], 11.3%; in the assay with CAL-51 it was 28%; in the assay with CAL-85-1 [4], 75.7%.

On to `CCNC(=O)c1noc(-c2cc(C(C)C)c(O)cc2O)c1-c1ccc(CN2CCOCC2)cc1` [NVP-AUY922] (100 nM), for which the normalised viability with MDA-MB-453 [1] worked out at 8.47%; in the assay with DU-4475 [2] it was 0.71%; in the assay with HDQ-P1, 31.8%; with CAL-148 [3], 15.9%; in the assay on CAL-51, 10.1%; in the assay on CAL-85-1 [4] it was 28.6%.

As for `Cn1cc(C2=C(c3cn(C4CCN(Cc5ccccn5)CC4)c4ccccc34)C(=O)NC2=O)c2ccccc21` [Enzastaurin] (1000 nM), the normalised viability in the assay with MDA-MB-453 [1] was determined as 62.8%; in the assay with DU-4475 [2], 91.7%; in the assay on HDQ-P1 it was 81.2%; in the assay on CAL-148 [3] it was 73%; in the assay on CAL-51, 90.4%; in the assay on CAL-85-1 [4], 83.7%.

As for `Cc1nc(C(=O)NCC(=O)O)c(O)c2ccc(Oc3ccccc3)cc12` [FG-4592], the drug sensitivity score in the assay with MDA-MB-231 [5], with MFM-223, with BT-549 [6] and in the assay with CAL-85-1 [7] was 0 throughout.

On to `CCn1c(C(=O)N(C2CC2)C2CC2)cc2c3c(ncn3C)c(Nc3cc(C)n(C)n3)nc21`, for which the “EC50, CellTiter-Glo” value with MDA-MB-468 [12] is above 10000 nM. The drug sensitivity score with MDA-MB-231 [5], in the assay with MFM-223 and with CAL-85-1 [7] was 0 throughout.

In the case of `CC(C)(C)NC(=O)[C@H]1CC[C@H]2[C@@H]3CC[C@H]4NC(=O)C=C[C@]4(C)[C@H]3CC[C@]12C` [Finasteride] (1000 nM), the normalised viability with MDA-MB-453 [1] came to 106%; in the assay on DU-4475 [2], 113%; with HDQ-P1, 118%; in the assay on CAL-148 [3], 103%; with CAL-51 it was 109%; in the assay with CAL-85-1 [4], 98.4%.

In the case of `CO[C@@H]1[C@H](N(C)C(=O)c2ccccc2)C[C@H]2O[C@]1(C)n1c3ccccc3c3c4c(c5c6ccccc6n2c5c31)C(=O)NC4` [Midostaurin] (1000 nM), the normalised viability in the assay on MDA-MB-453 [1] stood at 67.9%; in the assay with DU-4475 [2] it was 8.53%; in the assay with HDQ-P1, 52.8%; in the assay with CAL-148 [3], 82.2%; in the assay on CAL-51 it was 14.5%; with CAL-85-1 [4] it was 81.1%.
